Test results: patent US20250179047A1, “5-[7-(3,4-DIHYDRO-1H-ISOQUINOLINE-2-CARBONYL)-1,2,3,4 TETRAHYDROISOQUINOLIN-6-YL]-1H-PYRROLE-3-CARBOXAMIDE DERIVATIVES, PHARMACEUTICAL COMPOSITIONS CONTAINING THEM AND THEIR USES AS PRO-APOPTOTIC AGENTS” (LES LABORATOIRES SERVIER, priority 2022, published 2025)

Columns and labels:
[1] = biological target: BCL2 WT (Homo sapiens (Human), UniProt P10415); experiment: TR-FRET competitive binding assay, BCL2 WT; settings: Ki determined from IC50, read-out: TR_FRET EKI_Bcl2 WT
Outline: (§1)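 Ki derived from IC50 (11-point dilution, 520/495 nm emission ratio) for displacing a fluorescein-labelled PUMA peptide (2 or 20 nM). Target was 0.5 nM E. coli-expressed Halo-tagged BCL2 (1-207) or BCLXL (2-196), terbium-labelled on Halo. Incubation 2 h at 23°C in pH 7.5 Hepes with 150 mM NaCl and 5% DMSO.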

[2] = biological target: BCL2 G101V (Homo sapiens, UniProt P10415, G101V); experiment: TR-FRET competitive binding assay, BCL2 G101V; settings: BCL2 G101V; Ki determined from IC50; read-out: TR_FRET EKI_Bcl2 G101V
Outline: as §1

[3] = test system: BCL2 G101V; experiment: TR-FRET competitive binding assay, BCL2 G101V; set-up: species or system human; settings: ratio Ki BCL2 G101V / Ki BCL2 WT
Outline: as §1

[4] = biological target: BCL2 D103Y (Homo sapiens, UniProt P10415, D103Y); experiment: TR-FRET competitive binding assay, BCL2 D103Y; settings: Ki determined from IC50, read-out: TR_FRET EKI_Bcl2 D103Y
Outline: as §1

[5] = biological target: BCLXL WT (Homo sapiens (Human), UniProt Q07817); experiment: TR-FRET competitive binding assay, BCLXL WT; settings: for Ki: BCLXL WT, Ki determined from IC50, read-out: TR_FRET EKI BclxL; for TR_FRET EKI BCLxL/WT selectivty ratio: ratio Ki BCLxL / Ki BCL2 WT
Outline: as §1

[6] = test system: KMS-12-PE Bcl-2 WT; experiment: In vitro cytotoxicity CellTiter-Glo 48 h, KMS-12-PE Bcl-2 WT; format: cell-based; settings: Homo sapiens, KMS-12-PE, C50 = concentration needed to reach 50% of the cellular viability
Outline: (§2)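 Viability measured by CellTiter-Glo luminescence after 48 h compound exposure (11-point curve, 37 °C, 5% CO2). Cells: KMS-12-PE transduced with wild-type or G101V-mutant Bcl-2, FACS-sorted for TagRFP. Reported C50 = concentration reaching 50% cellular viability.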

[7] = test system: KMS-12-PE Bcl-2 G101V; experiment: In vitro cytotoxicity CellTiter-Glo 48 h, KMS-12-PE Bcl-2 G101V; format: cell-based; settings: for Ratio (G101V/WT): C50 KMS-12-PE Bcl-2 G101V over C50 KMS-12-PE Bcl-2 WT; for IC50: Homo sapiens, KMS-12-PE, 48 h, CellTiter-Glo, C50 = concentration needed to reach 50% of the cellular viability
Outline: as §2

BCLXL WT, sequence (Q07817 other isoform, or with tags, fused parts or gaps): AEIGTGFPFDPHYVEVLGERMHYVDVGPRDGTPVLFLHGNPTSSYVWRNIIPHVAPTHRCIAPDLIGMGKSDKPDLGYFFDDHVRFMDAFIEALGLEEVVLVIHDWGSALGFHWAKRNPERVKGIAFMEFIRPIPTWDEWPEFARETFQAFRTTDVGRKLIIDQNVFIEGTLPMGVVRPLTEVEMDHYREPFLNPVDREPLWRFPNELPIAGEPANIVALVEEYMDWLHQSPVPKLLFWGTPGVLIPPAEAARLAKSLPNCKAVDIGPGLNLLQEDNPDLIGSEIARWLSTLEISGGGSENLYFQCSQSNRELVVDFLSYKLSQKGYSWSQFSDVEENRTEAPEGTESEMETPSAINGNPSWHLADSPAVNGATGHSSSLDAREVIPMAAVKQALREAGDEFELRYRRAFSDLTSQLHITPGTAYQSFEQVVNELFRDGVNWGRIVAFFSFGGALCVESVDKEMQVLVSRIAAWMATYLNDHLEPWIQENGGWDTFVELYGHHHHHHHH

Row | SMILES | Ki [1] [nM] | Ki [2] [nM] | TR_FRET EKI G101V/WT selectivty ratio [3] | Ki [4] [nM] | Ki [5] [nM] | TR_FRET EKI BCLxL/WT selectivty ratio [5] | IC50 [6] [µM] | Ratio (G101V/WT) [7] | IC50 [7] [µM]
1 | Cc1c(N(C(=O)c2cc(-c3cc4c(cc3C(=O)N3Cc5ccccc5C[C@H]3C)CN(C(=O)Cc3ccc(OCCN5CCOC6(CCCC6)C5)cc3)CC4)n(C)c2C)c2ccc(O)cc2)cc(C#N)n1C [Example 73, N-(5-cyano-1,2-dimethyl-1H-pyrrol-3-yl)-N-(4-hydroxyphenyl)-1,2-dimethyl-5-{7-[(3R)-3-methyl-1,2,3,4-tetrahydroisoquinoline-2-carbonyl]-2-{2-[4-(2-{6-oxa-9-azaspiro[4.5]decan-9-yl}ethoxy)phenyl]acetyl}-1,2,3,4-tetrahydroisoquinolin-6-yl}-1H-pyrrole-3-carboxamide] | 0.5 | 2.7 | 5.4 | 1.74 | 8.9 | 17.8 | 0.0057 | 5.25 | 0.0298
2 | Cc1c(N(C(=O)c2cc(-c3cc4c(cc3C(=O)N3Cc5ccccc5C[C@H]3CN3CC[C@@H](F)C3)CN(C(=O)Cc3ccc(OCCC5CCOCC5)cc3)CC4)n(C)c2C)c2ccc(O)cc2)cc(C#N)n1C [Example 79, N-(5-cyano-1,2-dimethylpyrrol-3-yl)-5-(7-{[(3S)-3-{[(3R)-3-fluoropyrrolidin-1-yl]methyl}-3,4-dihydro-1H-isoquinolin-2-yl]carbonyl}-2-(2-{4-[2-(oxan-4-yl)ethoxy]phenyl}acetyl)-3,4-dihydro-1H-isoquinolin-6-yl)-N-(4-hydroxyphenyl)-1,2-dimethylpyrrole-3-carboxamide] | 0.26 | 1.5 | 5.8 | 0.75 | 3.9 | 15.0 | 0.0122 | 4.85 | 0.0592
3 | Cc1c(N(C(=O)c2cc(-c3cc4c(cc3C(=O)N3Cc5ccccc5C[C@H]3CN3CC[C@@H](F)C3)CN(C(=O)Cc3ccc(OCCN5CCOCC5)cc3F)CC4)n(C)c2C)c2ccc(O)cc2)cc(C#N)n1C [Example 80, N-(5-cyano-1,2-dimethylpyrrol-3-yl)-5-[2-(2-{2-fluoro-4-[2-(morpholin-4-yl)ethoxy]phenyl}acetyl)-7-{[(3S)-3-{[(3R)-3-fluoropyrrolidin-1-yl]methyl}-3,4-dihydro-1H-isoquinolin-2-yl]carbonyl}-3,4-dihydro-1H-isoquinolin-6-yl]-N-(4-hydroxyphenyl)-1,2-dimethylpyrrole-3-carboxamide] | 0.06 | 0.3 | 4.9 | 0.14 | 1.2 | 21.1 | 0.0094 | 5.66 | 0.0534
4 | Cc1c(N(C(=O)c2cc(-c3cc4c(cc3C(=O)N3Cc5ccccc5C[C@H]3CN3CCCCC3)CN(C(=O)Cc3ccc(OCCN5CCC(F)(F)C5)cc3)CC4)n(C)c2C)c2ccc(O)cc2)cc(C#N)n1C [Example 82, N-(5-cyano-1,2-dimethylpyrrol-3-yl)-5-[2-(2-{4-[2-(3,3-difluoropyrrolidin-1-yl)ethoxy]phenyl}acetyl)-7-{[(3S)-3-(piperidin-1-ylmethyl)-3,4-dihydro-1H-isoquinolin-2-yl]carbonyl}-3,4-dihydro-1H-isoquinolin-6-yl]-N-(4-hydroxyphenyl)-1,2-dimethylpyrrole-3-carboxamide] | 0.19 | 1.2 | 6.7 | 0.35 | 6.3 | 33.9 | 0.0095 | 6.45 | 0.0572
5 | Cc1c(N(C(=O)c2cc(-c3cc4c(cc3C(=O)N3Cc5ccccc5C[C@H]3CN3CCCCC3)CN(C(=O)Cc3cc(F)c(OCCN5CCOCC5)cc3F)CC4)n(C)c2C)c2ccc(O)cc2)cc(C#N)n1C [Example 83, N-(5-cyano-1,2-dimethylpyrrol-3-yl)-5-[2-(2-{2,5-difluoro-4-[2-(morpholin-4-yl)ethoxy]phenyl}acetyl)-7-{[(3S)-3-(piperidin-1-ylmethyl)-3,4-dihydro-1H-isoquinolin-2-yl]carbonyl}-3,4-dihydro-1H-isoquinolin-6-yl]-N-(4-hydroxyphenyl)-1,2-dimethylpyrrole-3-carboxamide] | 0.09 | 0.9 | 10.9 | 0.21 | 9.3 | 109.4 | 0.0125 | 8.1 | 0.0958

Now from value to compound, other results behind:

Row | Ki [1] [nM] | Ki [2] [nM] | TR_FRET EKI G101V/WT selectivty ratio [3] | Ki [4] [nM] | Ki [5] [nM] | TR_FRET EKI BCLxL/WT selectivty ratio [5] | SMILES | IC50 [6] [µM] | Ratio (G101V/WT) [7] | IC50 [7] [µM]
6 | 0.06 | 0.3 | 5.5 | 0.18 | 1.8 | 32.7 | Cc1c(N(C(=O)c2cc(-c3cc4c(cc3C(=O)N3Cc5ccccc5C[C@H]3CN3CCCCC3)CN(C(=O)Cc3ccc(OCCN5CCC(F)CC5)cc3)CC4)n(C)c2C)c2ccc(O)cc2)cc(C#N)n1C [Example 76, N-(5-cyano-1,2-dimethylpyrrol-3-yl)-5-[2-(2-{4-[2-(4-fluoropiperidin-1-yl)ethoxy]phenyl}acetyl)-7-{[(3S)-3-(piperidin-1-ylmethyl)-3,4-dihydro-1H-isoquinolin-2-yl]carbonyl}-3,4-dihydro-1H-isoquinolin-6-yl]-N-(4-hydroxyphenyl)-1,2-dimethylpyrrole-3-carboxamide] | 0.0165 | 5.28 | 0.0871
7 | 0.32 | 1.1 | 3.3 | 0.39 | 9.8 | 30.6 | Cc1c(C(=O)N(c2ccc(O)cc2)c2cnn(C)c2)cc(-c2cc3c(cc2C(=O)N2Cc4ccccc4C[C@H]2C)CN(C(=O)Cc2ccc(OCCC4CCOCC4)cc2)CC3)n1C [Example 85, N-(4-hydroxyphenyl)-1,2-dimethyl-5-(7-{[(3R)-3-methyl-3,4-dihydro-1H-isoquinolin-2-yl]carbonyl}-2-(2-{4-[2-(oxan-4-yl)ethoxy]phenyl}acetyl)-3,4-dihydro-1H-isoquinolin-6-yl)-N-(1-methylpyrazol-4-yl)pyrrole-3-carboxamide] | 0.0061 | 8.42 | 0.051
8 | 0.1 | 0.6 | 5.9 | 0.27 | 1.7 | 17.0 | Cc1c(N(C(=O)c2cc(-c3cc4c(cc3C(=O)N3Cc5ccccc5C[C@H]3CN3CCCCC3)CN(C(=O)Cc3ccc(OCCN(C)C5CC5)cc3F)CC4)n(C)c2C)c2ccc(O)cc2)cc(C#N)n1C [Example 88, N-(5-cyano-1,2-dimethylpyrrol-3-yl)-5-{2-[2-(4-{2-[cyclopropyl(methyl)amino]ethoxy}-2-fluorophenyl)acetyl]-7-{[(3S)-3-(piperidin-1-ylmethyl)-3,4-dihydro-1H-isoquinolin-2-yl]carbonyl}-3,4-dihydro-1H-isoquinolin-6-yl}-N-(4-hydroxyphenyl)-1,2-dimethylpyrrole-3-carboxamide] | 0.0063 | 4.67 | 0.0296
